Data: US8987314B2, “Amide, urea or sulfone amide linked benzothiazole inhibitors of endothelial lipase” (Bristol-Myers Squibb Company, priority 2012, dated 2015)

Target: Endothelial lipase (EL) (Homo sapiens (Human), UniProt Q9Y5X9)
Experiment: EL assay: endothelial lipase activity with fluorescent substrate A10070 in DMPG vesicles
Type: biochemical
Settings: EL from conditioned media of HT-1080 cells; 30 min incubation with compound at 37° C.; A10070/DMPG vesicles
Procedure: Endothelial lipase (EL) and hepatic lipase (HL) activities were measured using a fluorescent substrate, A10070, (Invitrogen, CA) doped into an artificial vesicle containing DMPG (Avanti Polar Lipids) as the excipient. Vesicles were prepared by combining 571 μL of 29 mM DMPG in a 1:1 mixture of MeOH and CHCl3 with 2000 μL of 1 mM A10070 in a 1:1 mixture of MeOH and CHCl3. The mixture was dried under nitrogen in multiple vials then resuspended in 20 mL total volume of 50 mM HEPES pH 8.0 buffer containing 50 mM NaCl and 0.2 mM EDTA. The sample was allowed to sit at room temperature for 15 min and then was sonicated 3×4 mins on ice with a Branson Sonicator using duty cycle 1. This preparation provides vesicles with a mole fraction of 0.11 for the FRET substrate.
The enzymatic assay was measured using 384-well white Optiplates. Each well contained 20 μL of assay buffer (50 mM HEPES pH 8.0, 50 mM NaCl and 1 mM CaCl2) and 0.25 μL of a DMSO solution containing a compound of interest. EL or HL (10 μL) was added and allowed to incubate with the compound for 30 min at 37° C. The source of EL was conditioned media obtained from HT-1080 cells that were transformed using RAGE technology (Athersys) to overexpress endogenous EL, and HL was partially purified from conditioned media obtained from COS cells overexpressing HL. The reaction was started by the addition of 10 μL of a 1:10 dilution of vesicles. The final total reaction volume was […]. The reaction rates were measured on a Gemini plate reader with an excitation wavelength of 490 nm and an emission wavelength of 530 nm. Readings were taken over a period of 60 minutes, and the slope between 300 and 900 secs of the readout was used to calculate the rate of the reaction.

Endothelial lipase (EL), sequence (Q9Y5X9 21-500): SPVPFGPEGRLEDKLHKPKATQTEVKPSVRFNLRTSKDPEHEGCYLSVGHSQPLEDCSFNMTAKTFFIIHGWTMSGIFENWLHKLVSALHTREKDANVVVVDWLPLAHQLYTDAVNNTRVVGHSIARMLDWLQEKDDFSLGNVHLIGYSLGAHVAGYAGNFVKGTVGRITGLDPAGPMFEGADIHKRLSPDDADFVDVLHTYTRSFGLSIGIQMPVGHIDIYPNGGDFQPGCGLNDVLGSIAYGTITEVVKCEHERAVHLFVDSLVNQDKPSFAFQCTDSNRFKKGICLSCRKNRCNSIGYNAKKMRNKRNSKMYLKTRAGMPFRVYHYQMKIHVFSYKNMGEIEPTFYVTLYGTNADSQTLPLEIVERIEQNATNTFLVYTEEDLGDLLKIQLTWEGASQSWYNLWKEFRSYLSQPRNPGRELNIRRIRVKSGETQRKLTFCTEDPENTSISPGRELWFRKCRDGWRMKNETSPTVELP

Compound	IC50 [nM]
NS(=O)(=O)CCNC(=O)C(NC(=O)c1ccc(C(F)(F)F)cc1)c1nc2ccc(-c3ccc(F)nc3)cc2s1 (stereo not drawn) [Example A1, N-(1-(6-(6-Fluoropyridin-3-yl)benzo[d]thiazol-2-yl)-2-oxo-2-((2-sulfamoylethyl)amino)ethyl)-4-(trifluoromethyl)benzamide]	35
CCCC(=O)NC(C(=O)NCCS(N)(=O)=O)c1nc2ccc(-c3ccc(F)nc3)cc2s1 (stereo not drawn) [Example A3, N-(1-(6-(6-fluoropyridin-3-yl)benzo[d]thiazol-2-yl)-2-oxo-2-((2-sulfamoylethyl)amino)ethyl)butyramide]	< 10
NS(=O)(=O)CCNC(=O)C(NC(=O)C(F)F)c1nc2ccc(-c3ccc(F)nc3)cc2s1 (stereo not drawn) [Example A4, 2-(2,2-difluoroacetamido)-2-(6-(6-fluoropyridin-3-yl)benzo[d]thiazol-2-yl)-N-(2-sulfamoylethyl)acetamide]	< 10
CCCC(=O)NC(C(=O)NCCS(N)(=O)=O)c1nc2ccc(-c3ccc(C(=O)N4CCOCC4)cc3)cc2s1 (stereo not drawn) [Example A5, N-(1-(6-(4-(morpholine-4-carbonyl)phenyl)benzo[d]thiazol-2-yl)-2-oxo-2-((2-sulfamoylethyl)amino)ethyl)butyramide]	< 10
NS(=O)(=O)CCNC(=O)C(NC(=O)c1cccnc1)c1nc2ccc(-c3ccc(C(=O)N4CCOCC4)cc3)cc2s1 (stereo not drawn) [Example A6, N-(1-(6-(4-(morpholine-4-carbonyl)phenyl)benzo[d]thiazol-2-yl)-2-oxo-2-((2-sulfamoylethyl)amino)ethyl)nicotinamide]	< 10
NS(=O)(=O)CCNC(=O)C(NC(=O)c1ccc(C(F)(F)F)cc1)c1nc2ccc(-c3ccc(C(=O)N4CCOCC4)cc3)cc2s1 (stereo not drawn) [Example A7]	< 10
CC(=O)NC(C(=O)NCc1nnc(C)o1)c1nc2ccc(-c3ccc(F)cc3)cc2s1 (stereo not drawn) [Example A8, 2-acetamido-2-(6-(4-fluorophenyl)benzo[d]thiazol-2-yl)-N-((5-methyl-1,3,4-oxadiazol-2-yl)methyl)acetamide]	< 10
Cc1nnc(CNC(=O)C(NC(=O)NCc2ccccc2)c2nc3ccc(-c4ccc(F)cc4)cc3s2)o1 (stereo not drawn) [Example A9, 2-(3-Benzylureido)-2-(6-(4-fluorophenyl)benzo[d]thiazol-2-yl)-N-((5-methyl-1,3,4-oxadiazol-2-yl)methyl)acetamide]	50
CS(=O)(=O)C(C(=O)NCCS(N)(=O)=O)c1nc2ccc(-c3ccccc3)cc2s1 (stereo not drawn) [Example B1, 2-(Methylsulfonyl)-2-(6-phenylbenzo[d]thiazol-2-yl)-N-(2-sulfamoylethyl)acetamide]	< 10
C=CCS(=O)(=O)C(C(=O)NCCS(N)(=O)=O)c1nc2ccc(-c3ccccc3)cc2s1 (stereo not drawn) [Example B2, 2-(Allylsulfonyl)-2-(6-phenylbenzo[d]thiazol-2-yl)-N-(2-sulfamoylethyl)acetamide]	< 10
CS(=O)(=O)C(C(=O)NCCS(N)(=O)=O)c1nc2ccc(-c3ccc(F)nc3)cc2s1 (stereo not drawn) [Example B3, 2-(6-(6-fluoro-3-pyridinyl)-1,3-benzothiazol-2-yl)-2-(methylsulfonyl)-N-(2-sulfamoylethyl)acetamide]	< 10
Cc1noc(C)c1-c1ccc2nc(C(C(=O)NCCS(N)(=O)=O)S(C)(=O)=O)sc2c1 (stereo not drawn) [Example B4, 2-(6-(3,5-dimethyl-4-isoxazolyl)-1,3-benzothiazol-2-yl)-2-(methylsulfonyl)-N-(2-sulfamoylethyl)acetamide]	13
NS(=O)(=O)CCNC(=O)C(c1nc2ccc(-c3ccc(F)nc3)cc2s1)S(=O)(=O)Cc1ccccc1 (stereo not drawn) [Example B5, 2-(benzylsulfonyl)-2-(6-(6-fluoro-3-pyridinyl)-1,3-benzothiazol-2-yl)-N-(2-sulfamoylethyl)acetamide]	< 10
NS(=O)(=O)CCNC(=O)C(c1nc2ccc(-c3ccc(F)nc3)cc2s1)S(=O)(=O)Cc1ccc(C(F)(F)F)cc1 (stereo not drawn) [Example B6, 2-(6-(6-fluoro-3-pyridinyl)-1,3-benzothiazol-2-yl)-N-(2-sulfamoylethyl)-2-((4-(trifluoromethyl)benzyl)sulfonyl)acetamide]	< 10
NS(=O)(=O)CCNC(=O)C(c1nc2ccc(-c3ccc(F)nc3)cc2s1)S(=O)(=O)CCC(F)(F)F (stereo not drawn) [Example B7, 2-(6-(6-fluoropyridin-3-yl)benzo[d]thiazol-2-yl)-N-(2-sulfamoylethyl)-2-((3,3,3-trifluoropropyl)sulfonyl)acetamide]	< 10
CS(=O)(=O)C(C(=O)NCCS(N)(=O)=O)c1nc2ccc(-c3ccnc(F)c3)cc2s1 (stereo not drawn) [Example B8, 2-(6-(2-fluoro-4-pyridinyl)-1,3-benzothiazol-2-yl)-2-(methylsulfonyl)-N-(2-sulfamoylethyl)acetamide]	< 10
CS(=O)(=O)C(C(=O)NCCS(N)(=O)=O)c1nc2ccc(-c3ccnc(Cl)c3)cc2s1 (stereo not drawn) [Example B9, 2-(6-(2-chloro-4-pyridinyl)-1,3-benzothiazol-2-yl)-2-(methylsulfonyl)-N-(2-sulfamoylethyl)acetamide]	< 10
CS(=O)(=O)C(C(=O)NCCS(N)(=O)=O)c1nc2ccc(-c3ccc(Cl)nc3)cc2s1 (stereo not drawn) [Example B10, 2-(6-(6-chloro-3-pyridinyl)-1,3-benzothiazol-2-yl)-2-(methylsulfonyl)-N-(2-sulfamoylethyl)acetamide]	< 10
CC(C)S(=O)(=O)C(C(=O)NCCS(N)(=O)=O)c1nc2ccc(-c3ccc(F)nc3)cc2s1 (stereo not drawn) [Example B12, 2-(6-(6-fluoro-3-pyridinyl)-1,3-benzothiazol-2-yl)-2-(isopropylsulfonyl)-N-(2-sulfamoylethyl)acetamide]	< 10
CS(=O)(=O)C(C(=O)NCCS(N)(=O)=O)c1nc2ccc(-c3ccc(CN4CCOCC4)cc3)cc2s1 (stereo not drawn) [Example B13, 2-(methylsulfonyl)-2-(6-(4-(4-morpholinylmethyl)phenyl)-1,3-benzothiazol-2-yl)-N-(2-sulfamoylethyl)acetamide]	< 10
C=CCS(=O)(=O)C(C(=O)NCCS(N)(=O)=O)c1nc2ccc(-c3ccc(CN4CCOCC4)cc3)cc2s1 (stereo not drawn) [Example B14, 2-(allylsulfonyl)-2-(6-(4-(4-morpholinylmethyl)phenyl)-1,3-benzothiazol-2-yl)-N-(2-sulfamoylethyl)acetamide]	< 10
CCCS(=O)(=O)C(C(=O)NCCS(N)(=O)=O)c1nc2ccc(-c3ccnc(F)c3)cc2s1 (stereo not drawn) [Example B15, 2-(6-(2-fluoro-4-pyridinyl)-1,3-benzothiazol-2-yl)-2-(propylsulfonyl)-N-(2-sulfamoylethyl)acetamide]	< 10
CC(=O)Nc1ccc(-c2ccc3nc(C(C(=O)NCCS(N)(=O)=O)S(C)(=O)=O)sc3c2)cc1 (stereo not drawn) [Example B16, 2-(6-(4-acetamidophenyl)-1,3-benzothiazol-2-yl)-2-(methylsulfonyl)-N-(2-sulfamoylethyl)acetamide]	40
CN(C)S(=O)(=O)c1ccc(-c2ccc3nc(C(C(=O)NCCS(N)(=O)=O)S(C)(=O)=O)sc3c2)cc1 (stereo not drawn) [Example B17, 2-(6-(4-(dimethylsulfamoyl)phenyl)-1,3-benzothiazol-2-yl)-2-(methylsulfonyl)-N-(2-sulfamoylethyl)acetamide]	< 10
CNc1ccc(-c2ccc3nc(C(C(=O)NCCS(N)(=O)=O)S(C)(=O)=O)sc3c2)cc1 (stereo not drawn) [Example B18, 2-(6-(4-(methylamino)phenyl)-1,3-benzothiazol-2-yl)-2-(methylsulfonyl)-N-(2-sulfamoylethyl)acetamide]	13
COc1ccc(-c2ccc3nc(C(C(=O)NCCS(N)(=O)=O)S(C)(=O)=O)sc3c2)cn1 (stereo not drawn) [Example B19, 2-(6-(6-methoxy-3-pyridinyl)-1,3-benzothiazol-2-yl)-2-(methylsulfonyl)-N-(2-sulfamoylethyl)acetamide]	< 10
CS(=O)(=O)C(C(=O)NCCS(N)(=O)=O)c1nc2ccc(-c3ccc(N4CCOCC4)cc3)cc2s1 (stereo not drawn) [Example B20, 2-(methylsulfonyl)-2-(6-(4-(4-morpholinyl)phenyl)-1,3-benzothiazol-2-yl)-N-(2-sulfamoylethyl)acetamide]	< 10
CS(=O)(=O)C(C(=O)NCCS(N)(=O)=O)c1nc2ccc(-c3ccc(-n4cccn4)cc3)cc2s1 (stereo not drawn) [Example B21, 2-(methylsulfonyl)-2-(6-(4-(1H-pyrazol-1-yl)phenyl)-1,3-benzothiazol-2-yl)-N-(2-sulfamoylethyl)acetamide]	< 10
COC(=O)Nc1ccc(-c2ccc3nc(C(C(=O)NCCS(N)(=O)=O)S(C)(=O)=O)sc3c2)cc1 (stereo not drawn) [Example B22, methyl (4-(2-(1-(methylsulfonyl)-2-oxo-2-((2-sulfamoylethyl)amino)ethyl)-1,3-benzothiazol-6-yl)phenyl)carbamate]	< 10
CS(=O)(=O)CCNC(=O)C(c1nc2ccc(-c3ccnc(F)c3)cc2s1)S(C)(=O)=O (stereo not drawn) [Example B23, 2-(6-(2-Fluoro-4-pyridinyl)-1,3-benzothiazol-2-yl)-2-(methylsulfonyl)-N-(2-(methylsulfonyl)ethyl)acetamide]	210
